One experiment has as its system Salmonella cholerasuis. The experiment in a line: comparison of antibacterial effects: Green-zone A vs malic acid and grapefruit seed extract. In kind it is cell-based. Set-up: key: NBD: No Bacteria Detected; BD: Bacteria Detected. Particulars: 5% organic matter dilution (yeast extract, hard water). Here is the method:
The antibacterial effect of Green-zone A prepared in Example 1 was compared to the effect of each of malic acid and grapefruit seed extract alone.
A bacterial strain used in the test of antibacterial activity was Salmonella cholerasuis. The Salmonella strain was cultured in nutrient medium at 37° C. for 24 hours and used at a concentration of 5×10^8 cells/ml of the nutrient medium.
Green-zone A prepared in Example 1 was undiluted and diluted 2-fold and 5-fold with hard water. Meanwhile, a composition of 50 g malic acid completely dissolved in 200 ml of purified water, and a composition of 6 g grapefruit seed extract completely dissolved in 200 ml of distilled water, were undiluted and diluted 2-fold and 5-fold.
4 ml of the prepared Salmonella strain was mixed with 96 ml of 5% organic matter dilution (4° C., 5% yeast extract, pH 7.0, diluted with hard water). 2.5 ml of the mixture solution was taken and allowed to react at 4° C. for 30 minutes.
After completion of the reaction, 1 ml of the bacterial dilution was added and mixed with 9 ml of neutralizing medium (containing 5% horse serum inactivated in nutrient medium) at 37° C. Then, the mixture was added into test tubes containing 0.1 ml of each of nutrient media, and was proliferated in an incubator at 37° C. for 48 hours.
After completion of the proliferation, the […] was re-inoculated into blood medium and measured for the bactericidal activity of each of the compositions (Table 15).

The subject of experiment [1] is avian influenza viruses (AIV) (field isolate No. 02-8, virus strain K228). It is filed as cell-based.

On to `O=C(O)CC(O)C(=O)O` (stereo not shown) [Malic acid, malic acid], for which the results for the bactericidal activity result in the experiment with Salmonella cholerasuis (Original solution), in the experiment on Salmonella cholerasuis (dilution 1:2) and in the experiment on Salmonella cholerasuis (dilution 1:5) were “NBD”, “BD” and “BD”, respectively. Further, the “disinfectant effects up to dilutions of” value in experiment [1] was “no disinfectant effects”.

For the origin of these results see patent publication US20070148262A1 (priority 2005, published 2007).
